Data published in article PMC9720979, “Activation of Piezo1 downregulates renin in juxtaglomerular cells and contributes to blood pressure homeostasis” (Cell & Bioscience, 2022).
pEC50: −log10 of the molar value.

Target: T1, Piezo1 (Mus musculus, UniProt E2JF22)
T1 construct: endogenous full-length channel in mouse juxtaglomerular cell line As4.1 (ATCC CRL2193); homotrimer
Experiment: Fluo-4 calcium imaging in As4.[…] cells, Hill fit
Type: cell-based
Conditions: agonist; native As4.1 cells, HBSS with extracellular Ca2+; no added modulator

T1 sequence (E2JF22 whole entry): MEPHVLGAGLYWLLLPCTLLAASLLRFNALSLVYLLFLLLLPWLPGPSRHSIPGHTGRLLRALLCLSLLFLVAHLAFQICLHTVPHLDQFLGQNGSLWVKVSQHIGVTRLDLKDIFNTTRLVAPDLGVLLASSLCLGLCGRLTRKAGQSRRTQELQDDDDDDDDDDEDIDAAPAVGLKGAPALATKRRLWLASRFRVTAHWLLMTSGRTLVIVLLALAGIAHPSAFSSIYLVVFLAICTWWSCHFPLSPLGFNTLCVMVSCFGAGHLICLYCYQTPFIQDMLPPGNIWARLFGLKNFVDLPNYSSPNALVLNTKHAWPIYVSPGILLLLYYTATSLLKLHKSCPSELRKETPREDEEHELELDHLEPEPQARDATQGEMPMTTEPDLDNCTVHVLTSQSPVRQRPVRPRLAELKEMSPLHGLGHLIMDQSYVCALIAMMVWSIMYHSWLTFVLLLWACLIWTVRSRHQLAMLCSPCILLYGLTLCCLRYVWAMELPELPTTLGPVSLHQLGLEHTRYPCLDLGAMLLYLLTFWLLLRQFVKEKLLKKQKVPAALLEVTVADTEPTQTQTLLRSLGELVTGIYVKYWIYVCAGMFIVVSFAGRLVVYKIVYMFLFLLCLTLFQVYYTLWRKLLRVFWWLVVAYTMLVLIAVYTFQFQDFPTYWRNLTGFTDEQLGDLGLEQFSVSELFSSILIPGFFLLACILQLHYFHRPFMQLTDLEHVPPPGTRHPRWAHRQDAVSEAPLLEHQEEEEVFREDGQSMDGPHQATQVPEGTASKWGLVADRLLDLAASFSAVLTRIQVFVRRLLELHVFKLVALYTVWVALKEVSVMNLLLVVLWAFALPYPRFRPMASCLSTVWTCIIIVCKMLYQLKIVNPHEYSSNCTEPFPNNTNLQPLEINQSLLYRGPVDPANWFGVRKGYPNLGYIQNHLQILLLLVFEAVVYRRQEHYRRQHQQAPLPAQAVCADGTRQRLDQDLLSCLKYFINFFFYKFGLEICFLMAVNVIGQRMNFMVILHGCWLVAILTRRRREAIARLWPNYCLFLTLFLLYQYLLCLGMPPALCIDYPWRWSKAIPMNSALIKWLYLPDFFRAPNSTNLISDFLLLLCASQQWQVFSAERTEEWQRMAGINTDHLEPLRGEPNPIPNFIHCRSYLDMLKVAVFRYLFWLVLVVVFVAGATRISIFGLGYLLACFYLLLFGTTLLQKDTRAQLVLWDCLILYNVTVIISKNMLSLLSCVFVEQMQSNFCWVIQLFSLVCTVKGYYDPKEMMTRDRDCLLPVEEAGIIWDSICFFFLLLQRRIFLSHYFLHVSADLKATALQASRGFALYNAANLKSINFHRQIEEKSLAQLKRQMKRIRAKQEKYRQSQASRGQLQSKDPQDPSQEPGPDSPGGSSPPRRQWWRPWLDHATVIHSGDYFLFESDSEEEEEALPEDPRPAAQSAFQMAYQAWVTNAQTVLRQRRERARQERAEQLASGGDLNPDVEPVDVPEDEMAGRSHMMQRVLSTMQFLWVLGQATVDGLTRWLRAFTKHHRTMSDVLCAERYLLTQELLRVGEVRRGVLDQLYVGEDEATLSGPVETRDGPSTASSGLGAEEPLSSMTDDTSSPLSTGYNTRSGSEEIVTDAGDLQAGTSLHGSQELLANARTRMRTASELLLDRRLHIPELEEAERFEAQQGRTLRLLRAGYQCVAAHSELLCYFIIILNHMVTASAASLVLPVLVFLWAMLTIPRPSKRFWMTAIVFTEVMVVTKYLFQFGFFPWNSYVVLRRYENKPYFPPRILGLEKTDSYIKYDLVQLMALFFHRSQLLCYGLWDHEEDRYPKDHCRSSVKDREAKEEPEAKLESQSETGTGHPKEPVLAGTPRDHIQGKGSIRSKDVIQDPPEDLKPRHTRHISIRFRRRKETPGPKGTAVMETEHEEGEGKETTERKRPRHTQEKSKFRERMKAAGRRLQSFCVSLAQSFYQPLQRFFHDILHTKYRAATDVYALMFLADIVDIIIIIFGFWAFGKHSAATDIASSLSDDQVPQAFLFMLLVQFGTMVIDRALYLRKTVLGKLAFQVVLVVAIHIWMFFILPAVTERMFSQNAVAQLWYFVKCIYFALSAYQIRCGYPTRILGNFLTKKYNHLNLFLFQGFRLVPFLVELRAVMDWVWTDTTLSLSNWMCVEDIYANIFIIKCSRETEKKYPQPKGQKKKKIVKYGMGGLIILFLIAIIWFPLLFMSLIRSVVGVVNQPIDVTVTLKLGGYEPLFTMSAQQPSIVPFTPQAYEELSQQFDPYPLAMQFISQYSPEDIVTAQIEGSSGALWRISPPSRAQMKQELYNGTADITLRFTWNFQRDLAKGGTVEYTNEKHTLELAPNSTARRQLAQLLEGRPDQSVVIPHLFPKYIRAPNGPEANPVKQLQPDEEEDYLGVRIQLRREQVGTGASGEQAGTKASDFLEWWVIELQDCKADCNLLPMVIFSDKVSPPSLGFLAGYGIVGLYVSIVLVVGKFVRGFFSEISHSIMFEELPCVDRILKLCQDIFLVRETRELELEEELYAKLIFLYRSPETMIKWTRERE

Clc1cccc(Cl)c1CSc1nnc(-c2cnccn2)s1 [Yoda1]
pEC50: 5.11
